In paper PMC11027065 (Analytical chemistry, 2020):

Target: T1, insulin-regulated aminopeptidase (IRAP, EC 3.4.11.3) (Rattus norvegicus, UniProt P97629)
T1 sequence (P97629 1-1025): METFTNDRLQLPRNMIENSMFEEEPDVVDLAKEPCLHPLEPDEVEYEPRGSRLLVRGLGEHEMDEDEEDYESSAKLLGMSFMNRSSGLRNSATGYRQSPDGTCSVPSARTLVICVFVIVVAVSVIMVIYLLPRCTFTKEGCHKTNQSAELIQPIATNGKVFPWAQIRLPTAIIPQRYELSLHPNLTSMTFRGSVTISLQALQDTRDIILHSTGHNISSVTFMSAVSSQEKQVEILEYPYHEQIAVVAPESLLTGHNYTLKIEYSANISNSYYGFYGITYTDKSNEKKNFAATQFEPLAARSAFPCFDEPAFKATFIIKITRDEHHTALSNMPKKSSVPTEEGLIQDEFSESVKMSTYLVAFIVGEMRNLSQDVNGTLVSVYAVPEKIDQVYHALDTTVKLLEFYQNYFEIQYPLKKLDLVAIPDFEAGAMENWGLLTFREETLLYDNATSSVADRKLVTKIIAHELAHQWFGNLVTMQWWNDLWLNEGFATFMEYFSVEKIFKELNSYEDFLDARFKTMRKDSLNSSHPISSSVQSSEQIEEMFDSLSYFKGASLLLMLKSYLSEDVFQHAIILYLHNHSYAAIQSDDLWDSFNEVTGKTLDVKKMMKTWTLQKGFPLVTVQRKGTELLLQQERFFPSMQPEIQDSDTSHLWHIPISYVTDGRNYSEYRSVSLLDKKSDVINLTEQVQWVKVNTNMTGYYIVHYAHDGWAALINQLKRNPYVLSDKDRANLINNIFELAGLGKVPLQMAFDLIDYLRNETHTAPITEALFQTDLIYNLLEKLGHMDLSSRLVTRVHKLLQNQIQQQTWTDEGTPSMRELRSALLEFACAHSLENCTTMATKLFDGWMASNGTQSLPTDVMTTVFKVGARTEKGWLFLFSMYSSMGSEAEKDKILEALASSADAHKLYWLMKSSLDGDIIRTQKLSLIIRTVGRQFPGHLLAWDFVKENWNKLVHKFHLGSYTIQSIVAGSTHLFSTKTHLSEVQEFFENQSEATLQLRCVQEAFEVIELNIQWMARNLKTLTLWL
Test: EOP-MD probe with cLC-MS2: effect of HFI-419 on LE hydrolysis in vivo
Details: 50 μM HFI-419; GGFL detected without inhibitor; data not shown

## CCOC(=O)C1=C(NC(C)=O)Oc2cc(O)ccc2C1c1cccnc1 (stereo not shown) [HFI-419]
  product GGFL in dialysate during infusion of inhibitor: undetected
